Assays:
Assay type in all cases: physicochemical
[1] = Molecular interaction of salmon calcitonin with polyglycolic acid (co-precipitation, supernatant assay); conditions: for CALCITONIN CONC.: supernatant
Procedure: The present example was intended to quantify chemical and/or physical association between salmon calcitonin and polyglycolic acid (PGA) having a molecular weight of 40,000 Daltons.
(§1) Approximately five mg of calcitonin were quantitatively weighed and placed in each of a series of 5 ml volumetric flasks. Hexafluoroacetone sesquihydrate (HFA) was added dropwise until the calcitonin dissolved completely. A 5% PGA in HFA solution was quantitatively added dropwise to each flask to provide a mass of PGA covering the range of 0 to 26.3 mg. The flasks were agitated for 5 minutes to mix the solution. Each flask was then filled to the 5 ml mark with phosphate buffer (pH 7.3). The addition of buffer precipitated the PGA plus any calcitonin that had bound with the polymer. The resulting mixture was centrifuged and the supernatant was analyzed spectrophotometrically for salmon calcitonin content. 26 mg of PGA (40,000 Mw) removed approximately 4.1 mg (83%) of salmon calcitonin.

[2] = Molecular interaction of salmon calcitonin with poly(glycolic-Co-lactic acid); conditions: for CALCITONIN CONC.: supernatant
Procedure: as §1
The procedure of preparing the poly(glycolic-Co-lactic acid) (PGL) having a molecular weight of 50,000 microspheres was similar to that used for PGA, except the hexafluoro-2-propanol was substituted for HFA. Above 8 mg of PGL over 80% of salmon calcitonin was removed.

[3] = Molecular interaction of salmon calcitonin with polylactic acid; conditions: for CALCITONIN CONC.: supernatant
Procedure: as §1
The procedure for preparing the polylactic acid (PLA), dl-type having a molecular weight of 50,000, was similar to that used for PGA, except that methylene chloride was substituted for HFA and the calcitonin was suspended rather than dissolved in the methylene chloride. In addition, since methylene chloride and buffer are not miscible, salmon calcitonin was extracted from methylene chloride in buffer. The aqueous phase was separated, centrifuged and the supernatant was analyzed spectrophotometrically for salmon calcitonin.

[4] = In vitro release of salmon calcitonin from microspheres; conditions: in the phosphate buffer, pH 7.4, 37° C.
Procedure: Twenty mg of PGA-salmon calcitonin microspheres were loaded into a test tube. Ten ml of a 0.1M phosphate buffer, pH 7.4, containing EDTA were added and the tubes transferred to a 37° C. water bath. Nineteen μg salmon calcitonin/mg microspheres were released initially as a burst. This initial release was followed by a fast release of 50% of the total drug in less than two hours. At this point, a slow release followed and 22 μg salmon calcitonin/mg microspheres (22% of total drug) was released in the following 29 hours.

salmon calcitonin
salmon calcitonin removed ([1]; 26 mg of PGA (40,000 Mw)): approximately 4.1 mg
salmon calcitonin removed (percent) ([1]; 26 mg of PGA (40,000 Mw)): ~83%
% CALCITONIN REMOVED ([1]; PGA mass 0.00 mg): 1.90%
CALCITONIN REMOVED ([1]; PGA mass 0.00 mg): 0.099 mg
% CALCITONIN REMOVED ([1]; PGA mass 5.73 mg): 2.71%
CALCITONIN REMOVED ([1]; PGA mass 5.73 mg): 0.125 mg
% CALCITONIN REMOVED ([1]; PGA mass 7.81 mg): 22.3%
CALCITONIN REMOVED ([1]; PGA mass 7.81 mg): 1.07 mg
% CALCITONIN REMOVED ([1]; PGA mass 7.89 mg): 6.80%
CALCITONIN REMOVED ([1]; PGA mass 7.89 mg): 0.340 mg
% CALCITONIN REMOVED ([1]; PGA mass 10.4 mg): 54.0%
CALCITONIN REMOVED ([1]; PGA mass 10.4 mg): 2.54 mg
% CALCITONIN REMOVED ([1]; PGA mass 11.8 mg): 38.0%
CALCITONIN REMOVED ([1]; PGA mass 11.8 mg): 1.71 mg
% CALCITONIN REMOVED ([1]; PGA mass 13.2 mg): 32.7%
CALCITONIN REMOVED ([1]; PGA mass 13.2 mg): 1.64 mg
% CALCITONIN REMOVED ([1]; PGA mass 14.0 mg): 41.2%
CALCITONIN REMOVED ([1]; PGA mass 14.0 mg): 2.02 mg
% CALCITONIN REMOVED ([1]; PGA mass 15.8 mg): 53.7%
CALCITONIN REMOVED ([1]; PGA mass 15.8 mg): 2.69 mg
% CALCITONIN REMOVED ([1]; PGA mass 18.4 mg): 77.4%
CALCITONIN REMOVED ([1]; PGA mass 18.4 mg): 3.87 mg
% CALCITONIN REMOVED ([1]; PGA mass 21.0 mg): 82.1%
CALCITONIN REMOVED ([1]; PGA mass 21.0 mg): 4.10 mg
% CALCITONIN REMOVED ([1]; PGA mass 22.3 mg): 58.6%
CALCITONIN REMOVED ([1]; PGA mass 22.3 mg): 2.95 mg
% CALCITONIN REMOVED ([1]; PGA mass 23.7 mg): 72.4%
CALCITONIN REMOVED ([1]; PGA mass 23.7 mg): 3.62 mg
% CALCITONIN REMOVED ([1]; PGA mass 26.3 mg): 82.6%
CALCITONIN REMOVED ([1]; PGA mass 26.3 mg): 4.13 mg
CALCITONIN CONC. ([1]; PGA mass 0.00 mg): 1.020 mg/mL
CALCITONIN CONC. ([1]; PGA mass 5.73 mg): 0.895 mg/mL
CALCITONIN CONC. ([1]; PGA mass 7.81 mg): 0.746 mg/mL
CALCITONIN CONC. ([1]; PGA mass 7.89 mg): 0.932 mg/mL
CALCITONIN CONC. ([1]; PGA mass 10.4 mg): 0.432 mg/mL
CALCITONIN CONC. ([1]; PGA mass 11.8 mg): 0.558 mg/mL
CALCITONIN CONC. ([1]; PGA mass 13.2 mg): 0.673 mg/mL
CALCITONIN CONC. ([1]; PGA mass 14.0 mg): 0.576 mg/mL
CALCITONIN CONC. ([1]; PGA mass 15.8 mg): 0.461 mg/mL
CALCITONIN CONC. ([1]; PGA mass 18.4 mg): 0.226 mg/mL
CALCITONIN CONC. ([1]; PGA mass 21.0 mg): 0.175 mg/mL
CALCITONIN CONC. ([1]; PGA mass 22.3 mg): 0.422 mg/mL
CALCITONIN CONC. ([1]; PGA mass 23.7 mg): 0.276 mg/mL
CALCITONIN CONC. ([1]; PGA mass 26.3 mg): 0.174 mg/mL
% CALCITONIN REMOVED ([2]; PGL mass 0.00 mg): 11.1%
CALCITONIN REMOVED ([2]; PGL mass 0.00 mg): 0.591 mg
% CALCITONIN REMOVED ([2]; PGL mass 2.64 mg): 19.9%
CALCITONIN REMOVED ([2]; PGL mass 2.64 mg): 0.995 mg
% CALCITONIN REMOVED ([2]; PGL mass 4.13 mg): 43.9%
CALCITONIN REMOVED ([2]; PGL mass 4.13 mg): 2.15 mg
% CALCITONIN REMOVED ([2]; PGL mass 5.52 mg): 51.8%
CALCITONIN REMOVED ([2]; PGL mass 5.52 mg): 2.69 mg
% CALCITONIN REMOVED ([2]; PGL mass 6.51 mg): 59.8%
CALCITONIN REMOVED ([2]; PGL mass 6.51 mg): 2.87 mg
% CALCITONIN REMOVED ([2]; PGL mass 8.45 mg): 80.8%
CALCITONIN REMOVED ([2]; PGL mass 8.45 mg): 3.64 mg
% CALCITONIN REMOVED ([2]; PGL mass 11.53 mg): 87.5%
CALCITONIN REMOVED ([2]; PGL mass 11.53 mg): 4.37 mg
% CALCITONIN REMOVED ([2]; PGL mass 13.57 mg): 92.5%
CALCITONIN REMOVED ([2]; PGL mass 13.57 mg): 4.44 mg
% CALCITONIN REMOVED ([2]; PGL mass 20.97 mg): 91.6%
CALCITONIN REMOVED ([2]; PGL mass 20.97 mg): 4.95 mg
salmon calcitonin removed (percent) ([2]; above 8 mg of PGL): over 80%
CALCITONIN CONC. ([2]; PGL mass 0.00 mg): 0.941 mg/mL
CALCITONIN CONC. ([2]; PGL mass 2.64 mg): 0.801 mg/mL
CALCITONIN CONC. ([2]; PGL mass 4.13 mg): 0.550 mg/mL
CALCITONIN CONC. ([2]; PGL mass 5.52 mg): 0.501 mg/mL
CALCITONIN CONC. ([2]; PGL mass 6.51 mg): 0.386 mg/mL
CALCITONIN CONC. ([2]; PGL mass 8.45 mg): 0.172 mg/mL
CALCITONIN CONC. ([2]; PGL mass 11.53 mg): 0.125 mg/mL
CALCITONIN CONC. ([2]; PGL mass 13.57 mg): 0.0725 mg/mL
CALCITONIN CONC. ([2]; PGL mass 20.97 mg): 0.0908 mg/mL
% CALCITONIN REMOVED ([3]; PLA mass 0.00 mg): 1.03%
CALCITONIN REMOVED ([3]; PLA mass 0.00 mg): 0.055 mg
% CALCITONIN REMOVED ([3]; PLA mass 2.68 mg): 40.8%
CALCITONIN REMOVED ([3]; PLA mass 2.68 mg): 2.04 mg
% CALCITONIN REMOVED ([3]; PLA mass 4.81 mg): 47.2%
CALCITONIN REMOVED ([3]; PLA mass 4.81 mg): 2.36 mg
% CALCITONIN REMOVED ([3]; PLA mass 10.28 mg): 55.4%
CALCITONIN REMOVED ([3]; PLA mass 10.28 mg): 2.77 mg
% CALCITONIN REMOVED ([3]; PLA mass 14.95 mg): 72.4%
CALCITONIN REMOVED ([3]; PLA mass 14.95 mg): 3.62 mg
% CALCITONIN REMOVED ([3]; PLA mass 20.40 mg): 60.3%
CALCITONIN REMOVED ([3]; PLA mass 20.40 mg): 3.02 mg
CALCITONIN CONC. ([3]; PLA mass 0.00 mg): 1.05 mg/mL
CALCITONIN CONC. ([3]; PLA mass 2.68 mg): 0.592 mg/mL
CALCITONIN CONC. ([3]; PLA mass 4.81 mg): 0.488 mg/mL
CALCITONIN CONC. ([3]; PLA mass 10.28 mg): 0.386 mg/mL
CALCITONIN CONC. ([3]; PLA mass 14.95 mg): 0.276 mg/mL
CALCITONIN CONC. ([3]; PLA mass 20.40 mg): 0.417 mg/mL
time salmon calcitonin remains stable [4]: about 35 hours
